Assay results reported in patent US20220023289A1, “Application Of Pyrroloquinoline Quinone In Preparation Of Medicament Used For Preventing And Treating Acute Altitude Sickness And Acute Altitude Hypoxia Injury” (priority 2018, published 2022).

Tests used:
[1] = system: rats exposed to acute altitude hypoxia; test: Myocardial enzyme activity in rats exposed to acute altitude hypoxia; format: in vivo, Wistar rat; conditions: male rats, hypoxia
Method: (§1) Select healthy Wistar rats weight 160-200 g, half female and half male. After feeding for 3 days, these Wistar rats are randomly divided into ten groups according to their body weight, each group has 16±2 rats. The groups are divided as follows: five groups of the hypoxic exposure drug test group, respectively, are given 0.91 mg/kg, 1.83 mg/kg, 3.66 mg/kg, 7.31 mg/kg, and 14.63 mg/kg drugs. […] After continuous intragastric administration for 7 days, the animals in the hypoxic exposure group are simultaneously put into the decompression and hypoxia compound experimental chamber, the hatch is closed, and the pressure is reduced at a speed of 10 m/s. After being raised to an altitude of 6000 m and maintained for 8 hours, the speed in 10 m/s drops is reduced to normal altitude, open the hatch, and then take out the animal, collect blood samples (after standing for 1 hour, the supernatant is centrifuged and stored at −20° C.), and liver tissue samples. Detection indicator includes body weight, serum blood glucose, ATP, lactic acid, endothelin, nitric oxide, SOD, CO, MDA related to oxidative stress, and total protein, albumin, triglycerides, total cholesterol, high-density lipoprotein cholesterol, low-density lipoprotein cholesterol, glutamic pyruvic transaminase, total bilirubin, gluamic oxalacetic transaminase, serum urea nitrogen, creatinine, uric acid, lactate dehydrogenase, creatine kinase, α-hydroxybutyrate dehydrogenase; liver ATP, hepatic glycogen. Except that the formal oxygen control animal group is not put into the decompression and hypoxia compound experimental chamber, other experimental conditions and detection indicators are the same.
(§2) Measure blood glucose, total protein, albumin, triglycerides, total cholesterol, high-density lipoprotein cholesterol, low-density lipoprotein cholesterol, glutamic-pyruvic transaminase, total bilirubin, glutamic oxalacetic transaminase, serum urea nitrogen, creatinine, uric acid, lactate dehydrogenase, creatine kinase, α-hydroxybutyrate dehydrogenase, blood homocysteine by using an automatic blood biochemical analyzer.

[2] = system: rats exposed to acute altitude hypoxia; test: Serum homocysteine in rats exposed to acute altitude hypoxia; format: in vivo, Wistar rat
Method: as §1, §2

[3] = system: rats exposed to acute altitude hypoxia; test: Endothelial function (serum endothelin-1, nitric oxide) in rats exposed to acute altitude hypoxia; format: in vivo, Wistar rat
Excerpt: This method uses nitrate reductase specificity reduce NO^3− to NO^2−, and then determine the level of its concentration by displaying shades of color. Operate according to the kit instructions, measure the absorbance of each tube at a wavelength of 550 nm, and then calculate the content of nitric oxide of the sample to be tested according to the formula. To the coated microwells pre-coated with rat endothelin (endothelin-1) capture antibody, add in sequence specimens, standards, and HRP-labeled detection antibody, and then incubate and wash thoroughly. Use a substrate TMB for color development. TMB is converted into blue under the catalysis of peroxidase and converted into the final yellow color under the action of acid. The color intensity is positively correlated with the rat endothelin (endothelin-1) in the sample.

[4] = system: rats exposed to acute altitude hypoxia; test: Liver ATP and glycogen in rats exposed to acute altitude hypoxia; format: in vivo, Wistar rat
Method: Determination of adenosine triphosphate (ATP): Perform enzyme-linked immunosorbent assay by double-antibody one-step sandwich method. To the coated microwells pre-coated with rat adenosine triphosphate (ATP) capture antibody, add in sequence the specimens, standard, and HRP-labeled detection antibody, and then incubate and wash thoroughly. Use a substrate TMB for color development, TMB is converted into blue under the catalysis of peroxidase and converted into the final yellow color under the action of acid. The color intensity is positively correlated with the rat adenosine triphosphate (ATP) in the sample. […] Determination of liver glycogen (GC): Perform enzyme-linked immunosorbent assay by double-antibody one-step sandwich method. To the coated microwells pre-coated with rat liver glycogen (GC) capture antibody, add in sequence the specimens, standard, and HRP-labeled detection antibody, and then incubate and wash thoroughly. Use a substrate TMB for color development, TMB is converted into blue under the catalysis of peroxidase and converted into the final yellow color under the action of acid. The color intensity is positively correlated with the rat liver glycogen (GC) in the sample.

[5] = system: mice exposed to high altitude hypoxia; test: Exhaustive swimming experiment in mice exposed to high altitude hypoxia (6000 m); format: in vivo, Kunming mice; conditions: for Exhausted swimming survival time: 7 days
Excerpt: Select healthy male Kunming mice weight 18-22 g.

[6] = female rats, hypoxia, 0.91 mg/kg
[7] = female rats, hypoxia, 1.83 mg/kg
[8] = female rats, hypoxia, 3.66 mg/kg
[9] = female rats, hypoxia, 7.31 mg/kg
[10] = female rats, hypoxia, 14.63 mg/kg
[11] = female rats, normoxia, 3.66 mg/kg
[12] = male rats, hypoxia, 14.63 mg/kg
[13] = female rats after acute hypoxia exposure

O=C(O)c1cc(C(=O)O)c2c(n1)C(=O)C(=O)c1cc(C(=O)O)[nH]c1-2 [PQQ, pyrroloquinoline quinone]
Lactate dehydrogenase ([1]; 7.31 mg/kg): 767.38 ± 546.88 U/L
α-hydroxybutyrate dehydrogenase ([1]; 7.31 mg/kg): 325.63 ± 238.56 U/L
Creatine Kinase ([1]; 14.63 mg/kg): 510.89 ± 240.61 U/L
Lactate dehydrogenase ([1]; 14.63 mg/kg): 510.44 ± 275.48 U/L
α-hydroxybutyrate dehydrogenase ([1]; 14.63 mg/kg): 218.67 ± 118.08 U/L
Serum homocysteine [2, 6]: 9.43 ± 1.4 µmol/L
Serum homocysteine [2, 7]: 10.66 ± 2.13 µmol/L
Serum homocysteine [2, 8]: 9.63 ± 1.97 µmol/L
Serum homocysteine [2, 9]: 8.6 ± 1.72 µmol/L
Serum homocysteine [2, 10]: 8.11 ± 1.37 µmol/L
effect on serum homocysteine ([2]; female rats, normoxia): no significant effects
Serum homocysteine [2, 11]: 9.76 ± 1.16 µmol/L
effect on serum homocysteine ([2]; hypoxia exposed female rats): no significant effects
effect on serum homocysteine ([2]; hypoxia exposed male rats): have been not found
Serum homocysteine ([2]; male rats, hypoxia, 0.91 mg/kg): 11.18 ± 2.09 µmol/L
Serum homocysteine ([2]; male rats, hypoxia, 1.83 mg/kg): 13.24 ± 3.87 µmol/L
Serum homocysteine ([2]; male rats, hypoxia, 3.66 mg/kg): 13.65 ± 3.24 µmol/L
Serum homocysteine ([2]; male rats, hypoxia, 7.31 mg/kg): 11.48 ± 2.36 µmol/L
Serum homocysteine [2, 12]: 12.78 ± 2.87 µmol/L
effect on nitric oxide [3, 13]: no significant effect
effect on serum endothelin-1 content [3, 13]: can increase
Endothelin-1 [3, 6]: 64.75 ± 2.72 ng/mL
Nitric oxide [3, 6]: 3.50 ± 1.24 µmol/L
Endothelin-1 [3, 7]: 63.21 ± 4.33 ng/mL
Nitric oxide [3, 7]: 4.47 ± 1.35 µmol/L
Endothelin-1 [3, 8]: 68.58 ± 5.38 ng/mL
Nitric oxide [3, 8]: 6.19 ± 2.06 µmol/L
Endothelin-1 [3, 9]: 65.44 ± 14.06 ng/mL
Nitric oxide [3, 9]: 5.92 ± 2.31 µmol/L
Endothelin-1 [3, 10]: 65.26 ± 6.60 ng/mL
Nitric oxide [3, 10]: 4.62 ± 3.25 µmol/L
effect on nitric oxide content ([3]; female rats, normoxia): no significant effects
effect on serum endothelin-1 content ([3]; female rats, normoxia): can reduce
Endothelin-1 [3, 11]: 47.50 ± 7.31 ng/mL
Nitric oxide [3, 11]: 5.01 ± 1.57 µmol/L
effect on serum endothelin-1 and nitric oxide ([3]; hypoxia exposed male rats): no significant effects
Endothelin-1 ([3]; male rats, hypoxia, 0.91 mg/kg): 45.35 ± 4.24 ng/mL
Nitric oxide ([3]; male rats, hypoxia, 0.91 mg/kg): 5.28 ± 0.71 µmol/L
Endothelin-1 ([3]; male rats, hypoxia, 1.83 mg/kg): 42.59 ± 1.45 ng/mL
Nitric oxide ([3]; male rats, hypoxia, 1.83 mg/kg): 5.15 ± 2.11 µmol/L
Endothelin-1 ([3]; male rats, hypoxia, 3.66 mg/kg): 48.14 ± 3.13 ng/mL
Nitric oxide ([3]; male rats, hypoxia, 3.66 mg/kg): 5.35 ± 1.35 µmol/L
Endothelin-1 ([3]; male rats, hypoxia, 7.31 mg/kg): 43.60 ± 0.94 ng/mL
Nitric oxide ([3]; male rats, hypoxia, 7.31 mg/kg): 6.20 ± 2.49 µmol/L
Endothelin-1 [3, 12]: 42.45 ± 3.84 ng/mL
Nitric oxide [3, 12]: 6.46 ± 1.44 µmol/L
effect on liver ATP and glycogen content ([4]; female rats, after hypoxia exposure and normoxia): no significant effects
liver Glycogen [4, 6]: 2.52 ± 0.36 ng/mL
liver ATP [4, 7]: 1.58 ± 0.27 µg/mL
liver Glycogen [4, 7]: 2.89 ± 0.57 ng/mL
liver ATP [4, 8]: 1.64 ± 0.37 µg/mL
liver Glycogen [4, 8]: 2.84 ± 0.67 ng/mL
liver Glycogen [4, 9]: 3.07 ± 0.19 ng/mL
liver Glycogen [4, 10]: 3.62 ± 0.38 ng/mL
liver ATP [4, 11]: 1.62 ± 0.13 µg/mL
liver Glycogen [4, 11]: 2.89 ± 0.28 ng/mL
effect on liver ATP and glycogen content ([4]; male rats): can increase
liver Glycogen ([4]; male rats, hypoxia, 0.91 mg/kg): 2.41 ± 0.41 ng/mL
liver Glycogen ([4]; male rats, hypoxia, 1.83 mg/kg): 2.23 ± 0.17 ng/mL
liver Glycogen ([4]; male rats, hypoxia, 3.66 mg/kg): 2.70 ± 0.84 ng/mL
liver Glycogen ([4]; male rats, hypoxia, 7.31 mg/kg): 2.86 ± 0.43 ng/mL
liver Glycogen [4, 12]: 2.55 ± 0.28 ng/mL
start time of exhaustion swimming death ([5]; male mice, 6000 m): delayed
increasing rate of survival time ([5]; male mice, 6000 m, 1.32 mg/kg): 52.49%
increasing rate of survival time ([5]; male mice, 6000 m, 2.64 mg/kg): 109.05%
increasing rate of survival time ([5]; male mice, 6000 m, 5.28 mg/kg): 32.54%
increasing rate of survival time ([5]; male mice, 6000 m, 10.56 mg/kg): 49.30%
increasing rate of survival time ([5]; male mice, 6000 m, 21.12 mg/kg): 101.47%
Exhausted swimming survival time ([5]; male mice, 6000 m, 1.32 mg/kg): 199.21 ± 98.54 min
Exhausted swimming survival time ([5]; male mice, 6000 m, 2.64 mg/kg): 273.10 ± 63.07 min
Exhausted swimming survival time ([5]; male mice, 6000 m, 5.28 mg/kg): 173.15 ± 116.32 min
Exhausted swimming survival time ([5]; male mice, 6000 m, 10.56 mg/kg): 195.04 ± 59.81 min
Exhausted swimming survival time ([5]; male mice, 6000 m, 21.12 mg/kg): 263.20 ± 48.27 min
time at which mice are completely dead ([5]; male mice, 6000 m, each PQQ dose group): about 400 minutes
effect on survival time after exhausting swimming / working ability under hypoxia ([5]; mice under low oxygen exposure): can prolong the survival time of mice after exhausting swimming
